Measured values as given in patent publication US12257251B2, “Use of FAK inhibitor in preparation of drug for treating tumors having NRAS mutation” (INXMED (NANJING) CO., LTD., priority 2019, dated 2025).

Experiments:
[1] = Body weight change (tolerability) in the KYSE-270 xenograft study; assay type: in vivo, mouse
Protocol: (§1) 1.7. Monitoring tumor growth and side effects: Tumor diameters were measured with calipers three times a week. The volume [mm^3] of each tumor was calculated according to the equation “tumor volume=length×diameter^2×π/6”. To monitor the side effects of the treatment, the mice were checked daily for abnormalities and their body weights were measured three times a week. For ethical reasons, animals with tumors larger than 1.5 cm in diameter, ulcerated tumors, or 20% body weight loss were euthanized.
(§2) The wilcoxon test was used for comparison. For body weight, the percent change relative to initial body weight on day 1 was used as the target variable for statistical analysis. The number of animals, and the median, minimum and maximum weight changes in each group were calculated.
(§3) One-sided test to compare all treatment groups with control group was performed for observing: • reduction in tumor volume (inhibition of tumor growth, efficacy parameter) and • reduction in weight changes (weight loss, tolerance parameters).
Within each subtopic, p-values for the efficacy parameter were compared and adjusted for multiple times according to Bonferroni-Holm. The p-value for the tolerance parameter was kept constant so as not to overlook possible side effects. Significance level was fixed at α=5%. A p-value (adjusted) of less than 0.05 was considered to show a statistically significant difference between groups, and 0.05≤p-value<0.10 was considered as an indicative difference. Statistical evaluations were performed using the SAS software package version 9.4 (SAS Institute Inc., Cary NC, USA).

[2] = tested on: human esophageal cancer cell line KYSE-270; experiment: Subcutaneous xenograft of human esophageal cancer cell line KYSE-270 in NMRI nude mice: tumor growth; assay type: in vivo, mouse; conditions: for Tumor shrinkage [x/y]: Paclitaxel 10 mg/Kg q7d
Protocol: 1.1. Model: Subcutaneous xenograft of human esophageal cancer cell line KYSE-270 in NMRI nude mice.
1.3. Cells: KYSE-270 is an esophageal cancer cell line (Public Health England, catalog number: 94072021). Cells were cultured in T175 tissue culture flasks containing 5% CO2 at 37° C. The medium was RPMI 1640+HAM F12 (1:1) supplemented with 2% FCS and 2 mM Glutamax. Passage was performed three times a week at a ratio of 1:2.
1.4. Mice: Mice were 8 to 10 week old female mice (BomTac: NMRI-Foxn1^nu) purchased from Taconic®, Denmark. Upon arrival in the animal room, the mice were allowed to acclimate for at least 5 days before being used for assay. The animals were housed under standard conditions (temperature: 21.5±1.5° C., humidity: 55+10%), 7 to 10 mice for each group. A standard diet and autoclaved tap water were provided for ad libitum feeding. A subcutaneous microchip implanted under isoflurane anesthesia was used to identify each mouse.
1.5. Random establishment of tumors: To establish subcutaneous tumors, KYSE-270 cells were harvested by centrifugation, washed and resuspended in PBS+5% FCS at a concentration of 5×10^7 cells/ml. Then 100 l of cell suspension containing 5×10^6 cells was injected subcutaneously into the right flank of mice (1 site per mouse). When tumors were well established and reached a volume of 94 to 252 mm^3, mice were randomly assigned to the treatment group and the control group (13 days after cell injection).
1.6. Administration: BI 853520 was suspended in 0.5% hydroxyethyl cellulose, which was administered intragastrically through gavage needle every day, and the dosage was 10 mL/Kg body weight. Paclitaxel was dissolved in saline (0.9% NaCl), which was administered intravenously in a volume of 10 ml/kg body weight. The suspension of BI853520 could be used for up to 7 days. Paclitaxel solution was stored at 6° C. and used for up to 14 days.
as §1
Statistical assessment of tumor volume and body weight on day 13 was performed. Animal number 1 (control group) was excluded from the statistical evaluation because of weight loss and had to be euthanized early (day 9). Measured tumor volume was used as the target variable in the statistical analysis. The number of animals and the median, minimum and maximum tumor volumes in each group were calculated. For a quick overview of possible treatment effects, the median tumor volume for each treatment group T and the median tumor volume for the control group C were used to calculate TGI: TGI=100×[(Cd−C1)−(Td−T1)]/(Cd−C1) • wherein, C1, T1=median tumor volume in control and treatment groups at the start of the assay (day 1). • Cd, Td=median tumor volume in control and treatment groups at the end of the assay (day 13).
as §2, §3
Within each subtopic, p-values for the efficacy parameter were compared and adjusted for multiple times according to Bonferroni-Holm. The p-value for the tolerance parameter was kept constant so as not to overlook possible side effects. […]

CC(=O)O[C@H]1C(=O)[C@@]2(C)[C@H]([C@H](OC(=O)c3ccccc3)[C@]3(O)C[C@H](OC(=O)[C@H](O)[C@@H](NC(=O)c4ccccc4)c4ccccc4)C(C)=C1C3(C)C)[C@]1(OC(C)=O)CO[C@@H]1C[C@@H]2O [Paclitaxel, reference compound]
Change in median weight ([1]; Paclitaxel 10 mg/Kg q7d, day 13 versus day 1): −9.7% | Reduction in the median body weight ([1]; Paclitaxel 10 mg/kg once a week, day 13, given as a decrease): 9.7% | Tumor shrinkage [x/y] ([2]; day 13): 0/7 | Tumor shrinkage [x/y] ([2]; day 13, listed as paclitaxel): none | TGI ([2]; Paclitaxel 10 mg/Kg q7d i.v., day 13): 2% | Median tumor volume ([2]; paclitaxel 10 mg/kg once a week, day 13 (start 190 mm^3)): 1033 mm^3
